# Data reported in patent US20130295173A1, “COMPOSITIONS OF STATINS AND OMEGA-3 FATTY ACIDS” (OMTHERA PHARMACEUTICALS, INC., priority 2012, published 2013).
# Assays:
# [1] = Stability testing of statins dissolved in PUFA free acid solvent system; type: physicochemical; settings: 25° C., 60% RH; for Statin in Oil: PUFA free acid solvent system; for Statin in Oil, Percent: share of total statin
# Procedure: The compositions were then mixed until full dissolution was observed, using a magnetic stir bar and sonication for 30-60 second intervals, taking care to maintain a nitrogen headspace over the solution throughout processing. […] Vials were covered with foil to protect from light and stored at 25° C., 60% RH. One vial of each of the three compositions was retrieved at each timepoint for testing. Procedures as listed in the USP Monograph for Omega-3-Acid Ethyl Ester Capsules were followed for measuring quantities of acid value, peroxide value, and absorbance for fats and fixed oils.
# [2] = Comparison of solubility of statins in PUFA free acid solvent system and Lovaza ethyl ester solvent system, HPLC assay of supernatant
# Procedure: For this study, ten vials were prepared such that 5 vials contained 2 mL of Lovaza oil and 5 vials contained 2 mL of PUFA free acid solvent system. About 20 mg of each statin were added to one Lovaza oil vial and to one PUFA free acid solvent system vial. Vials containing the samples were blanketed with nitrogen, then sealed. The vials were then sonicated for 1 hour or until contents appeared clear. After sonication, vials which remained clear received additional 20 mg aliquots of their respective statin and were again blanketed with nitrogen. […] The samples were centrifuged and the supernatant was assayed for the respective statin by HPLC.
# [3] = Initial solubility of statins in PUFA free acid solvent system (batch #37225); type: physicochemical
# [4] = Solubility of statins in various pH buffers
smiles,measurement,setting,value
"CC(C)c1c(C(=O)Nc2ccccc2)c(-c2ccccc2)c(-c2ccc(F)cc2)n1CC[C@@H](O)C[C@@H](O)CC(=O)[O-].CC(C)c1c(C(=O)Nc2ccccc2)c(-c2ccccc2)c(-c2ccc(F)cc2)n1CC[C@@H](O)C[C@@H](O)CC(=O)[O-].[Ca+2] [Atorvastatin Calcium, atorvastatin calcium]",Statin in Oil,[1]; t = 0,8.738 mg/g
same,"Statin in Oil, Percent",[1]; t = 0,100%
same,Statin in Oil,[1]; t = 1 week,8.275 mg/g
same,"Statin in Oil, Percent",[1]; t = 1 week,100%
same,Statin in Oil,[1]; t = 2 week,7.839 mg/g
same,"Statin in Oil, Percent",[1]; t = 2 week,100%
"O=C([O-])C[C@H](O)C[C@H](O)/C=C/c1c(C2CC2)nc2ccccc2c1-c1ccc(F)cc1.O=C([O-])C[C@H](O)C[C@H](O)/C=C/c1c(C2CC2)nc2ccccc2c1-c1ccc(F)cc1.[Ca+2] [Pitavastatin Calcium, pitavastatin calcium]",Solubility in Lovaza (ethyl ester) Solvent System,[2],0.615 mg/g
same,Solubility in PUFA Free Acid Solvent System,[2],12.771 mg/g
"CC[C@H](C)C(=O)O[C@H]1C[C@H](O)C=C2C=C[C@H](C)[C@H](CC[C@@H](O)C[C@@H](O)CC(=O)O)[C@H]21 [Pravastatin Sodium, pravastatin sodium]",Solubility in Lovaza (ethyl ester) Solvent System,[2],0.000 mg/g
same,Solubility in PUFA Free Acid Solvent System,[2],42.357 mg/g
same,Appearance of vial after sonication,"[2]; PUFA free acid solvent, 2 mL, after the addition of about 313 mg",still remained clear
"CC(C)c1nc(N(C)S(C)(=O)=O)nc(-c2ccc(F)cc2)c1/C=C/[C@@H](O)C[C@@H](O)CC(=O)[O-].CC(C)c1nc(N(C)S(C)(=O)=O)nc(-c2ccc(F)cc2)c1/C=C/[C@@H](O)C[C@@H](O)CC(=O)[O-].[Ca+2] [Rosuvastatin Calcium, rosuvastatin calcium]","Initial solubility in PUFA free acid solvent system, Concentration",[3],12.70 mg/mL
same,Statin in Oil,[1]; t = 0,6.481 mg/g
same,"Statin in Oil, Percent",[1]; t = 0,100%
same,Statin in Oil,[1]; t = 1 week,6.416 mg/g
same,"Statin in Oil, Percent",[1]; t = 1 week,100%
same,Statin in Oil,[1]; t = 2 week,6.505 mg/g
same,"Statin in Oil, Percent",[1]; t = 2 week,100%
same,Solubility,"[4]; 0.1N HCl (pH 1.2), T = 0",0.223
same,Solubility,"[4]; 0.1N HCl (pH 1.2), T = 1 Week",0.104
same,Solubility,"[4]; 0.1N NaOH, T = 0",8.058
same,Solubility,"[4]; 0.1N NaOH, T = 1 Week",0.018
same,Solubility,"[4]; Water, T = 0 (after sitting overnight)",7.08
same,Solubility,"[4]; Water, T = 1 Week",8.822
same,pH of maximal solubility,[4]; aqueous pH buffers,~7.0
same,Aqueous solubility (in words),"[4]; overall across aqueous solutions, rosuvastatin at time zero",significant aqueous solubility
same,Solubility,"[4]; pH 2.2 acid phthalate buffer, T = 0",0.773
same,Solubility,"[4]; pH 2.2 acid phthalate buffer, T = 1 Week",9.343
same,Solubility,"[4]; pH 4.0 acid phthalate buffer, T = 0",1.901
same,Solubility,"[4]; pH 4.0 acid phthalate buffer, T = 1 Week",0.002
same,Solubility,"[4]; pH 5.0 neutralized phthalate buffer, T = 0",4.188
same,Solubility,"[4]; pH 5.0 neutralized phthalate buffer, T = 1 Week",4.790
same,Solubility,"[4]; pH 7.0 phosphate buffer, T = 0",7.963
same,Solubility,"[4]; pH 7.0 phosphate buffer, T = 1 Week",10.654
same,Solubility,"[4]; pH 9.0 alkaline borate buffer, T = 0",4.571
same,Solubility,"[4]; pH 9.0 alkaline borate buffer, T = 1 Week",4.712
same,Solubility in Lovaza (ethyl ester) Solvent System,[2],0.001 mg/g
same,Solubility in PUFA Free Acid Solvent System,[2],12.700 mg/g
